Data taken from patent publication US7452997B2 (priority 2004, dated 2008).
Like-named read-outs stand apart in the source and are kept apart here.

How the values were obtained:
human CB2 receptor [1] = target: T1, human CB2 receptor (Homo sapiens, UniProt P34972); assay: Functional cell-based assay, CB2 receptor mediated change in CRE β-gal expression (agonist / inverse agonist); conditions: SK-N-MC cells, forskolin
Description: Functional Cell-Based Assay for CB1 or CB2 Agonist and Inverse Agonist Effects on Intra-Cellular Adenylate Cyclase Activity
The CB1 and CB2 receptors are G-protein coupled receptors (GPCR) which influence cell function via the Gi-protein. These receptors modulate the activity of intracellular adenylate cyclase which in turn produces the intracellular signal messenger cyclic-AMP (cAMP).
At baseline, or during non-ligand bound conditions, these receptors are constitutively active and tonically suppress adenylate cyclase activity. The binding of an agonists causes further receptor activation and produces additional suppression of adenylate cyclase activity. The binding of an inverse agonist inhibits the constitutive activity of the receptors and results in an increase in adenylate cyclase activity.
By monitoring intracellular adenylate cyclase activity, the ability of compounds to act as agonists or inverse agonists can be determined.
Test compounds were evaluated in SK-N-MC cells which, using standard transfection procedures, were stably transfected with human cDNA for pcDNA3-CRE β-gal and pcDNA3 CB1 receptor (human) or pcDNA3 CB2 receptor (human). By expressing CRE β-gal, the cells produced β-galactosidase in response to CRE promoter activation by cAMP. Cells expressing CRE β-gal and either the human CB1 or CB2 receptor will produce less β-galactosidase when treated with a CB1/CB2 agonist and will produce more β-galactosidase when treated with a CB1/CB2 inverse agonist.
The cells were grown in 96-well plates under standard cell culture conditions at 37° C. in a 5% CO2 atmosphere. After 3 days, the media was removed and a test compound in media (wherein the media was supplemented with 2 mM L-glutamine, […] sodium pyruvate, 0.1% low fatty acid FBS (fetal bovine serum) and antibiotics) was added to the cell. The plates were incubated for 30 minutes at 37° C. and the plate cells were then treated with forskolin over a 4-6 hour period, then washed and lysed. The β-galactosidase activity was quantitated using commercially available kit reagents (Promega Corp. Madison, Wis.) and a VMAX Plate Reader (Molecular Devices, Inc).
For cells expressing CRE β-gal and the CB2 receptor, CB2 agonists reduced β-galactosidase activity in a dose-dependent manner and CB2 inverse agonists increased β-galactosidase activity in a dose-dependent manner.
The change in β-galactosidase activity was determined by setting a vehicle treated cell's activity value at 100% and expressing the β-galactosidase activity measured in a corresponding compound treated cell as a percent of the vehicle treated cell activity.
The EC50 values for compounds tested were calculated by linear regression and were obtained from studies in which varying compound concentrations were used.

human CB1 receptor = target: T2, human CB1 receptor (Homo sapiens, UniProt P21554); assay: biochemical; format: binding
T2 construct: expressed in transfected cells; host or cells: SK-N-MC cells, stably transfected with pcDNA3 CB-1 (human); semi-purified membrane pellet
T2 sequence (P21554 whole entry): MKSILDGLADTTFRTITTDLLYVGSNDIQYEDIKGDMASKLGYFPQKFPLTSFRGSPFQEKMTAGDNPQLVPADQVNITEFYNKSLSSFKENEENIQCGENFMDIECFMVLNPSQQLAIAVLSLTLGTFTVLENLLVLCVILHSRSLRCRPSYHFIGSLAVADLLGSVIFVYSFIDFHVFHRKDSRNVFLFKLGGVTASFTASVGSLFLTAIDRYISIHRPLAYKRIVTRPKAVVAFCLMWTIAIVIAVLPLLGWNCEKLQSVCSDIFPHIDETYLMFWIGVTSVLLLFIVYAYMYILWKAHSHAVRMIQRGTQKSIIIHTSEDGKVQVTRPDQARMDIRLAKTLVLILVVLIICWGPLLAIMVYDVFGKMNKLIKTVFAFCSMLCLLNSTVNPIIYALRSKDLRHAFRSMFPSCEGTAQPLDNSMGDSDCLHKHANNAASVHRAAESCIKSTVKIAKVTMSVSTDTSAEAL
How it was run: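 Membranes from SK-N-MC cells stably expressing human CB1, incubated 90 minutes at 30° C in Tris-HCl buffer with MgCl2, EDTA and fatty acid free BSA, pH 7.5. Bound counts collected by filtration and scintillation counting; IC50 from linear regression over varying compound concentrations.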

human CB2 receptor [2] = target: T1, human CB2 receptor; assay: Binding assay, cannabinoid CB2 receptor ([3H]-CP-55,940 displacement); conditions: Cannabinoid CB2 Receptor Binding IC50, human CB2 receptor, SK-N-MC cell membranes, radioligand CP-55,940 0.2 nM
How it was run: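 Membranes from SK-N-MC cells stably expressing human CB2, incubated with test compound and 0.2 nM [3H]-CP-55,940 for 90 min at 30 °C in Tris buffer pH 7.5 with fatty-acid-free BSA. Nonspecific binding defined with 10 uM WIN 55,212; filtration and scintillation counting, IC50 by linear regression.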

[3] = agonist, read-out: CB2 Receptor Functional Agonist EC50
[4] = inverse agonist, read-out: CB2 Receptor Functional Inverse Agonist EC50

T1 sequence (P34972 whole entry): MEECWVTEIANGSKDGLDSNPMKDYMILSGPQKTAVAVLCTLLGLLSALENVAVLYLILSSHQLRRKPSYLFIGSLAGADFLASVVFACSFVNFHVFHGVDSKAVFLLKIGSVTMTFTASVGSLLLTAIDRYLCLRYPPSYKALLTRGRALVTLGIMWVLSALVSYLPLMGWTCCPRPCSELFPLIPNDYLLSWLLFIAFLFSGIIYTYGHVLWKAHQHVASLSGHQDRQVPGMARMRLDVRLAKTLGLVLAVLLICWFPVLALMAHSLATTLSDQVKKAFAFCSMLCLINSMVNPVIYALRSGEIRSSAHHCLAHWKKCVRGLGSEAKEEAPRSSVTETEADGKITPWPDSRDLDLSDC

| SMILES | EC50 (human CB2 receptor [1]; [3]) [µM] | IC50 (human CB1 receptor) [µM] | IC50 (human CB2 receptor [2]) [µM] | EC50 (human CB2 receptor [1]; [4]) [µM] |
| --- | --- | --- | --- | --- |
| CC12CCC(C1)C(C)(C)C2NC(=O)c1nn(-c2cccc(F)c2)c2c1CCCC2 (stereo not shown) [compound 18] | 0.0027 | 0.0918 | 0.0036 |  |
| C[C@@H](NC(=O)c1nn(C2CCCCC2)c2c1CCCC2)C1CCCCC1 [compound 195] | 0.0055 | 0.1 | 0.02 |  |
| CC(=O)OC1CCc2c(c(C(=O)NC3C4(C)CCC(C4)C3(C)C)nn2C2CCCCC2)C1 (stereo not shown) [compound 94] | 0.025 | 1.78 | 0.02 |  |
| C[C@@H](NC(=O)c1nn(C2CCCCC2)c2c1CCCC2)C12CC3CC(CC(C3)C1)C2 [compound 212] | 0.0037 | 0.26 | 0.074 |  |
| CCOC(=O)C1CCc2c(c(C(=O)NC(C)C34CC5CC(CC(C5)C3)C4)nn2-c2ccccc2)C1 (stereo not shown) [compound 116] |  |  | 0.99 | 0.5 |
| COC(=O)C(Cc1cccc(OCc2ccccc2)c1)NC(=O)c1nn(-c2ccc(OC)cc2)c2c1CCCC2 (stereo not shown) [compound 3] |  |  | 0.428 | 0.19 |
| COC(=O)C1CCc2c(c(C(=O)NC3C4CC5CC(C4)CC3C5)nn2C2CCCCC2)C1 (stereo not shown) [compound 231] |  | 0.638 |  | 0.035 |
| CCOC(=O)[C@H]1CCc2c(c(C(=O)NC(C)C34CC5CC(CC(C5)C3)C4)nn2C2CCCCC2)C1 (stereo partly shown) [compound 215] |  |  | 0.2 | 0.22 |
| CC(NC(=O)c1nn(C2CCCCC2)c2c1CC(CO)CC2)C12CC3CC(CC(C3)C1)C2 (stereo not shown) [Cpd 143, 1-cyclohexyl-5-hydroxymethyl-4,5,6,7-tetrahydro-1H-indazole-3-carboxylic acid (1-adamantan-1-yl-ethyl)-amide] |  | 2.4 | 1.26 |  |
| CCOC(=O)[C@H]1C2C=CC(C2)[C@H]1NC(=O)c1nn(Cc2ccccc2)c2c1CCCC2 (stereo partly shown) [compound 276] |  | 0.135 | 0.25 |  |
| CC(c1ccccc1)n1nc(C(=O)NC2C3CC4CC(C3)CC2C4)c2c1CCCC2 (stereo not shown) [compound 243] |  | 0.13 | 0.004 |  |
| CCOC(=O)C1CCc2c(c(C(=O)NC(C)C34CC5CC(CC(C5)C3)C4)nn2Cc2ccccc2)C1 (stereo not shown) [compound 148] |  | 0.013 | 0.03 |  |
| CC(NC(=O)c1nn(C2CCCCC2)c2c1CC(C(=O)O)CC2)C12CC3CC(CC(C3)C1)C2 (stereo not shown) [compound 133] |  | 12 | 1.34 |  |
| CC12CCC(C1)C(C)(C)C2NC(=O)Nc1nn(C2CCCCC2)c2c1CCCC2 (stereo not shown) [compound 205] |  | 1.58 | 0.07 |  |
| CCOC(=O)C1CCc2nn(C3CCCCC3)c(C(=O)NC(C)C34CC5CC(CC(C5)C3)C4)c2C1 (stereo not shown) [compound 190] |  | 1.62 | 4.5 |  |
| CCOC(=O)C1CCCc2c1c(C(=O)NCC13CC4CC(CC(C4)C1)C3)nn2Cc1ccccc1 (stereo not shown) [compound 159] |  | 0.74 | 0.13 |  |
| CC(c1ccccc1)n1nc(C(=O)NC23CC4CC(CC(C4)C2)C3)c2c1CCCC2 (stereo not shown) [compound 244] |  | 0.3 | 0.079 |  |
| CC12CCC(C1)C(C)(C)C2NC(=O)c1nn(C2CCCCC2)c2c1CC(O)CC2 (stereo not shown) [Cpd 93, 1-cyclohexyl-5-hydroxy-4,5,6,7-tetrahydro-1H-indazole-3-carboxylic acid (1,3,3-trimethyl-bicyclo[2.2.1]hept-2-yl)-amide] |  | 1.15 | 0.02 |  |
| O=C(NCC12CC3CC(CC(C3)C1)C2)c1nn(Cc2ccccc2)c2c1CCCC2 [compound 135] |  | 0.67 | 0.02 |  |
| O=C(CCc1nn(C2CCCCC2)c2c1CCCC2)N[C@@H]1C2CCC(C2)[C@@H]1CO (stereo partly shown) [compound 52] |  | 6.26 | 4.9 |  |
| CS(=O)(=O)NC1CCc2c(c(C(=O)NC3C4CC5CC(C4)CC3C5)nn2C2CCCCC2)C1 (stereo not shown) [compound 104] |  | 17.1 | 0.2 |  |
| CCOC(=O)C1C2CCC(C2)C1NC(=O)c1c2c(nn1Cc1ccccc1)CCCC2 (stereo not shown) [compound 42] |  | 10.7 | 0.64 |  |
| O=C(NC(c1ccccc1)C1CCCCC1)c1nn(C2CCCCC2)c2c1CCCC2 (stereo not shown) [Cpd 331, 1-cyclohexyl-4,5,6,7-tetrahydro-1H-indazole-3-carboxylic acid (cyclohexyl-phenyl)methylamide] |  | 3 | 0.098 |  |

| SMILES | EC50 (human CB2 receptor [1]; [3]) [µM] | IC50 (human CB1 receptor) [µM] | IC50 (human CB2 receptor [2]) [µM] | EC50 (human CB2 receptor [1]; [4]) [µM] |
| --- | --- | --- | --- | --- |
| O=C(NC1CCCc2ccccc21)c1nn(C2CCCCC2)c2c1CCCC2 (stereo not shown) [compound 183] |  | 0.05 | 0.0069 |  |
| CCOC(=O)[C@H]1C2C=CC(C2)[C@H]1NC(=O)c1nn(C2CCCCC2)c2c1CCCC2 (stereo partly shown) [compound 279] |  | 3.8 | 0.83 |  |
| CCOC(=O)C1CCc2c(c(C(=O)N[C@H](C)C3CCCCC3)nn2C2CCCCC2)C1 (stereo partly shown) [compound 251] |  |  | 0.0028 | 0.023 |
| CC(C)(C)C1CCc2c(c(C(=O)NC3C4(C)CCC(C4)C3(C)C)nn2C2CCCCC2)C1 (stereo not shown) [compound 99] |  | 0.96 | 0.25 |  |
| CC(NC(=O)c1nn(-c2ccc(Cl)cc2Cl)c2c1CCCC2)C12CC3CC(CC(C3)C1)C2 (stereo not shown) [compound 283] |  | 0.1 | 0.1 |  |
| CCOC(=O)[C@H]1CCCC[C@@H]1NC(=O)c1c2c(nn1Cc1ccccc1)CCCC2 [compound 271] |  | 6.2 | 2.6 |  |
| CCOC(=O)C1C2CCC(C2)C1NC(=O)c1nn(Cc2ccc(C)cc2)c2c1CCCC2 (stereo not shown) [compound 126] |  | 0.597 | 0.593 |  |
| CCOC(=O)[C@@H]1C2CCC(C2)[C@@H]1NC(=O)c1nn(Cc2ccccc2)c2c1CCCC2 (stereo partly shown) [compound 274] |  | 0.0187 | 0.0016 |  |
| O=C(NC1CC2CCC1C2)c1nn(-c2ccc(F)cc2)c2c1CCCC2 (stereo not shown) [compound 20] |  | 0.169 | 0.0352 |  |
| COC(=O)C(Cc1ccc(O)cc1)NC(=O)c1nn(C2CCCCC2)c2c1CCCC2 (stereo not shown) [compound 77] |  | 0.052 | 0.003 |  |
| O=C(NCC12CC3CC(CC(C3)C1)C2)c1c2c(nn1-c1ccc(Cl)cc1Cl)CCCC2 [compound 142] |  | 0.6 | 0.4 |  |
| Cc1ccc(Cn2nc(C(=O)NC3C4(C)CCC(C4)C3(C)C)c3c2CCCC3)cc1 (stereo not shown) [compound 125] |  | 0.026 | 0.0022 |  |
| O=C(NC1C2CC3CC(C2)CC1C3)c1nn(C2CCCCC2)c2c1CCCC2 (stereo not shown) [compound 45] |  | 0.04 | 0.0056 |  |
| CC(c1ccccc1)n1nc(C(=O)NCC2CCCCC2)c2c1CCCC2 (stereo not shown) [compound 242] |  | 0.3 | 1.6 |  |
| CC1CCCCC1NC(=O)c1nn(C2CCCCC2)c2c1CCCC2 (stereo not shown) [compound 245] |  | 0.02 | 0.002 |  |
| O=C(NC1C2CC3CC(C2)CC1C3)c1nn(C2CCCCC2)c2c1CC(NC(=O)N1CCOCC1)CC2 (stereo not shown) [compound 90] |  | 1.84 | 1.12 |  |
| CC(NC(=O)c1nn(C2CCCCC2)c2c1CCCC2)C1CCCCCC1 (stereo not shown) [compound 246] |  | 2.27 | 0.09 |  |
| CCOC(=O)[C@@H]1CCC[C@@H]1NC(=O)c1nn(C2CCCCC2)c2c1CCCC2Cl (stereo partly shown) [compound 61] |  | 2.19 | 0.19 |  |
| CCOC(=O)[C@H]1C2CCC(C2)[C@H]1NC(=O)c1nn(C2CCCCC2)c2c1CCCC2O (stereo partly drawn) [Cpd 164, (2S,3R)-3-[(1-cyclohexyl-7-hydroxy-4,5,6,7-tetrahydro-1H-indazole-3-carbonyl)-amino]-bicyclo[2.2.1]heptane-2-carboxylic acid ethyl ester] |  | 6.01 | 0.49 |  |
| C[C@H](NC(=O)c1nn(C2CCCCC2)c2c1CCCC2)c1ccccc1 [compound 196] |  | 0.125 | 0.12 |  |
| CCOC(=O)[C@H]1C2CCC(C2)[C@H]1NC(=O)c1nn(-c2ccc(Cl)cc2Cl)c2c1CCCC2 (stereo partly shown) [compound 130] |  | 0.4 | 0.005 |  |
| CCOC(=O)[C@H]1C2CCC(C2)[C@H]1NC(=O)c1nn(CC2CCCCC2)c2c1CCCC2 (stereo partly shown) [compound 124] |  | 0.007 | 0.016 |  |
